Source: paper PMC10468695, “The coenzyme B12 precursor 5,6-dimethylbenzimidazole is a flavin antagonist in Salmonella” (Microbial Cell, 2023)

Target: T1, NAD(P)H:flavin reductase (Fre) (Salmonella enterica, UniProt Q9L6L9)
T1 construct: tag-less Fre (H6 tag cleaved by rTEV)
T1 sequence (Q9L6L9 2-233): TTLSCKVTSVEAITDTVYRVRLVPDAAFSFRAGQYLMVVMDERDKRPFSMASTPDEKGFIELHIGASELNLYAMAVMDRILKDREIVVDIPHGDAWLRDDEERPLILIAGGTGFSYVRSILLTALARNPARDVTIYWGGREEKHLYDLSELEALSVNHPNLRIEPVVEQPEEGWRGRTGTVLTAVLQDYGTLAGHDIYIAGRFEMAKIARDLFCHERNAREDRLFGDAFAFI
Assay: NADH oxidation assay at […] nm with purified Fre; competitive inhibition fit versus FMN
Type: biochemical

Cc1cc2nc[nH]c2cc1C [DMB, 5,6-dimethylbenzimidazole]
Ki: 1900 µM
